Literature values in patent US20110092597A1, “METHOD FOR TREATING HERPES VIRUS INFECTION” (priority 2009, published 2011).

Assays:
[1] = not given; remark: listed apart in the source

| Compound | Solubility in water | Bioavailability [1] |
| --- | --- | --- |
| O=C(O)Cc1ccccc1Nc1c(Cl)cccc1Cl [Diclofenac, 2-(2,6-dichloro-anilino)-phenyl-acetic acid] | relatively low |  |
| Nc1nc2c(ncn2COCCO)c(=O)[nH]1 [acyclovir, acycloguanosine] | poorly soluble | low |
